From PubChem BioAssay AID218 (DTP/NCI, 2004)
“And” between values parts separate entries of the source, which are not always exact repeats. Equal values may be shown once. Starred links: 1 amine or outer side, 2 acyl side, 3 side chain; linkers in the order of their positions; H or OH if unused. Positions of bridges follow the written chain, without caps; N, C: chain ends. Non-standard residues stand in square brackets, D forms with d. Residues, ends and D or L forms follow the SMILES beside them. Chains are numbered I, II in the order given. Actinocin(9to1) = Cc1c2oc3c(C)ccc(C(=O)[*:1])c3nc-2c(C(=O)[*:2])c(N)c1=O; aThr = C[C@H](O)[C@H](N)C(=O)O; NMeV = CN[C@H](C(=O)O)C(C)C; Sar = CNCC(=O)O

Test system: C57BL/6 mice, Adenocarcinoma 755 sc, tumor weight T/C
Assay: NCI In Vivo Anticancer Drug Screen. Data for tumor model Adenocarcinoma 755 (subcutaneous) in C57BL/6 mice
Conditions: endpoint: mean tumor weight, higher = larger tumour
Description: The antitumor activity of compounds was measured in mice bearing transplantable tumors. Survival or tumor size were measured and the results are expressed as the measurement made in the treated group (T) divided by the measurement made in the vehicle treated control group (C). The tumor model used in this assay is Adenocarcinoma 755 (subcutaneous) in C57BL/6 mice

[1] = dose: 6.25 mg/kg/injection, schedule: Q01DX011 (ip), vehicle: methylcellulose (MC)
[2] = dose: 12.5 mg/kg/injection, schedule: Q01DX011 (ip), vehicle: methylcellulose (MC)
[3] = dose: 25.0 mg/kg/injection, schedule: Q01DX011 (ip), vehicle: methylcellulose (MC)
[4] = dose: 25.0 mg/kg/injection, schedule: Q01DX011 (ip), vehicle: saline
[5] = dose: 50.0 mg/kg/injection, schedule: Q01DX011 (ip), vehicle: saline
[6] = dose: 100.0 mg/kg/injection, schedule: Q01DX011 (ip), vehicle: saline
[7] = dose: 1.0 mg/kg/injection, schedule: Q01DX011 (ip), vehicle: saline
[8] = dose: 1.5 mg/kg/injection, schedule: Q01DX011 (ip), vehicle: saline
[9] = dose: 2.0 mg/kg/injection, schedule: Q01DX011 (ip), vehicle: saline
[10] = dose: 125.0 mg/kg/injection, schedule: Q01DX011 (ip), vehicle: saline
[11] = dose: 200.0 mg/kg/injection, schedule: Q01DX011 (ip), vehicle: saline
[12] = dose: 250.0 mg/kg/injection, schedule: Q01DX011 (ip), vehicle: saline
[13] = dose: 500.0 mg/kg/injection, schedule: Q01DX011 (ip), vehicle: saline
[14] = dose: 4.0 mg/kg/injection, schedule: Q01DX011 (ip), vehicle: saline
[15] = dose: 8.0 mg/kg/injection, schedule: Q01DX011 (ip), vehicle: saline
[16] = dose: 75.0 mg/kg/injection, schedule: Q01DX011 (ip), vehicle: saline

## Nc1nc(=S)c2ncn(C3OC(COC(=O)c4ccccc4)C(OC(=O)c4ccccc4)C3OC(=O)c3ccccc3)c2[nH]1 (centres undefined)
dose: 3.1 mg/kg/injection, schedule: Q01DX011 (ip), vehicle: methylcellulose (MC)
  T/C: 90 % of control
[1]
  T/C: 62 % of control
[2]
  T/C: 77 % of control
[3]
  T/C: 16 % of control

## Cn1cnc([N+](=O)[O-])c1Sc1ccccc1
[4]
  T/C: 84 % of control
[5]
  T/C: 47 % of control
[6]
  T/C: 53 % of control

## O=c1cn[nH]c(=O)[nH]1
dose: 100.0 mg/kg/injection, schedule: Q01DX011 (ip), vehicle: carboxymethylcellulose (CMC)
  T/C: 159 % of control
dose: 200.0 mg/kg/injection, schedule: Q01DX011 (ip), vehicle: carboxymethylcellulose (CMC)
  T/C: 110 % of control

## NC(=O)c1ccc(N)nc1
[7]
  T/C: 92 % of control and 94 % of control
[8]
  T/C: 52 % of control
[9]
  T/C: 48 % of control

## NC(=S)N/N=C/c1ccc([N+](=O)[O-])cc1
dose: 75.0 mg/kg/injection, schedule: Q02DX006 (ip), vehicle: saline
  T/C: 22 % of control
dose: 100.0 mg/kg/injection, schedule: Q02DX006 (ip), vehicle: saline
  T/C: 31 % of control

## CNC=O
[4]
  T/C: 92 % of control
[5]
  T/C: 112 % of control
[6]
  T/C: 64 % of control and 82 % of control
[10]
  T/C: 98 % of control
dose: 175.0 mg/kg/injection, schedule: Q02DX006 (ip), vehicle: water
  T/C: 40 % of control
[11]
  T/C: 9 % of control and 30 % of control
dose: 225.0 mg/kg/injection, schedule: Q02DX006 (ip), vehicle: water
  T/C: 56 % of control

## CN1CC(=O)NC1=O
[12]
  T/C: 49 % of control
[13]
  T/C: 68 % of control
dose: 1000.0 mg/kg/injection, schedule: Q01DX011 (ip), vehicle: saline
  T/C: 41 % of control
dose: 2000.0 mg/kg/injection, schedule: Q01DX011 (ip), vehicle: saline
  T/C: 70 % of control

## O=P1(N(CCF)CCCl)NCCCO1 (centres undefined)
dose: 6.25 mg/kg/injection, schedule: Q01DX011 (ip), vehicle: saline
  T/C: 76 % of control
dose: 12.5 mg/kg/injection, schedule: Q01DX011 (ip), vehicle: saline
  T/C: 94 % of control
[4]
  T/C: 66 % of control
[5]
  T/C: 88 % of control

## O=C(O)CCCc1ccc(N(CCCl)CCCl)cc1
[7]
  T/C: 73 % of control
[14]
  T/C: 80 % of control
[15]
  T/C: 51 % of control
dose: 16.0 mg/kg/injection, schedule: Q01DX011 (ip), vehicle: saline
  T/C: 98 % of control

## CCCCNc1nc(N(C)C)nc2nc[nH]c12
dose: 37.0 mg/kg/injection, schedule: Q01DX011 (ip), vehicle: saline
  T/C: 80 % of control
[16]
  T/C: 29 % of control
dose: 90.0 mg/kg/injection, schedule: Q01DX011 (ip), vehicle: saline
  T/C: 56 % of control
[10]
  T/C: 47 % of control

## CCNc1ncnc2[nH]ncc12
dose: 15.0 mg/kg/injection, schedule: Q01DX011 (ip), vehicle: saline
  T/C: 13 % of control
dose: 20.0 mg/kg/injection, schedule: Q01DX011 (ip), vehicle: saline
  T/C: 4 % of control

## O=[N+]([O-])c1ccc2c(c1)Cc1c-2cc(Br)c(O)c1Br
dose: 62.5 mg/kg/injection, schedule: Q01DX011 (ip), vehicle: saline
  T/C: 60 % of control
[10]
  T/C: 58 % of control
[12]
  T/C: 43 % of control
[13]
  T/C: 33 % of control

## N/C(=N\N=C\c1cccc([N+](=O)[O-])c1)N[N+](=O)[O-]
dose: 150.0 mg/kg/injection, schedule: Q02DX006 (ip), vehicle: saline
  T/C: 24 % of control
dose: 200.0 mg/kg/injection, schedule: Q02DX006 (ip), vehicle: saline
  T/C: 41 % of control

## N=[N+]=CC(=O)OCC(N)C(=O)O (centres undefined)
[14]
  T/C: 31 % of control
[15]
  T/C: 46 % of control

## Cn1c(N)nc2nc[nH]c2c1=S
dose: 1.0 mg/kg/injection, schedule: Q01DX008 (iv), vehicle: saline
  T/C: 169 % of control
dose: 2.0 mg/kg/injection, schedule: Q01DX008 (iv), vehicle: saline
  T/C: 173 % of control
dose: 4.0 mg/kg/injection, schedule: Q01DX008 (iv), vehicle: saline
  T/C: 79 % of control
dose: 32.0 mg/kg/injection, schedule: Q01DX008 (iv), vehicle: saline
  T/C: 67 % of control
dose: 64.0 mg/kg/injection, schedule: Q01DX008 (iv), vehicle: saline
  T/C: 65 % of control

## O=C([O][Hg][CH2]C1COC([CH2][Hg][O]C(=O)c2ccccc2)CO1)c1ccccc1 (centres undefined)
dose: 16.0 mg/kg/injection, schedule: Q01DX009 (ip), vehicle: saline
  T/C: 82 % of control
dose: 32.0 mg/kg/injection, schedule: Q01DX009 (ip), vehicle: saline
  T/C: 77 % of control
dose: 32.0 mg/kg/injection, schedule: Q01DX010 (ip), vehicle: saline
  T/C: 48 % of control

## Nc1nc(=S)c2[nH]cnc2[nH]1
dose: 0.06 mg/kg/injection, schedule: Q01DX011 (ip), vehicle: carboxymethylcellulose (CMC)
  T/C: 81 % of control
dose: 0.13 mg/kg/injection, schedule: Q01DX011 (ip), vehicle: carboxymethylcellulose (CMC)
  T/C: 111 % of control
dose: 0.25 mg/kg/injection, schedule: Q01DX011 (ip), vehicle: carboxymethylcellulose (CMC)
  T/C: 18 % of control
dose: 0.5 mg/kg/injection, schedule: Q01DX011 (ip), vehicle: carboxymethylcellulose (CMC)
  T/C: 7 % of control and 8 % of control
dose: 0.5 mg/kg/injection, schedule: Q01DX011 (ip), vehicle: saline
  T/C: 3 % of control
dose: 1.0 mg/kg/injection, schedule: Q01DX011 (ip), vehicle: carboxymethylcellulose (CMC)
  T/C: 7 % of control

## CCOC(C)C(/C=N/NC(N)=S)=NNC(N)=S (centres undefined)
dose: 120.0 mg/kg/injection, schedule: Q01DX011 (ip), vehicle: saline
  T/C: 59 % of control

## CCCCNc1ncnc2nc[nH]c12
dose: 30.0 mg/kg/injection, schedule: Q01DX011 (ip), vehicle: carboxymethylcellulose (CMC)
  T/C: 91 % of control

## Clc1ccccc1CSc1ncnc2nc[nH]c12
[16]
  T/C: 13 % of control
[6]
  T/C: 5 % of control
dose: 150.0 mg/kg/injection, schedule: Q01DX011 (ip), vehicle: saline
  T/C: 1 % of control
[11]
  T/C: 13 % of control

## CS(=O)(=O)OCCC(=O)N1CCN(C(=O)CCOS(C)(=O)=O)CC1
[1]
  T/C: 83 % of control
[2]
  T/C: 86 % of control
[3]
  T/C: 55 % of control

## Cc1c2oc3c(C)ccc(C(=O)N[C@@H]4C(=O)N[C@H](C(C)C)C(=O)N5CCC[C@H]5C(=O)N(C)CC(=O)N(C)[C@@H](C(C)C)C(=O)O[C@H]4C)c3nc-2c(C(=O)N[C@@H]2C(=O)N[C@H](C(C)C)C(=O)N3CCC[C@H]3C(=O)N(C)CC(=O)N(C)[C@@H](C(C)C)C(=O)O[C@H]2C)c(N)c1=O (I: [aThr][dV]P[Sar][NMeV] / II: [aThr][dV]P[Sar][NMeV]; ester I:1-I:C, II:1-II:C; linker I:N-II:N via Actinocin(9to1))
dose: 0.03 mg/kg/injection, schedule: Q01DX011 (ip), vehicle: saline
  T/C: 3 % of control

## CN(Cc1cnc2nc(N)nc(N)c2n1)c1ccc(C(=O)N[C@@H](CCC(=O)O)C(=O)O)cc1
dose: 0.75 mg/kg/injection, schedule: Q01DX011 (ip), vehicle: saline
  T/C: 74 % of control
[7]
  T/C: 105 % of control
[8]
  T/C: 45 % of control
[9]
  T/C: 87 % of control

## O=c1[nH]cc(F)c(=O)[nH]1
dose: 10.0 mg/kg/injection, schedule: Q01DX011 (ip), vehicle: carboxymethylcellulose (CMC)
  T/C: 7 % of control
dose: 20.0 mg/kg/injection, schedule: Q01DX011 (ip), vehicle: carboxymethylcellulose (CMC)
  T/C: 61 % of control

## c1cn[nH]c1
dose: 8.0 mg/kg/injection, schedule: Q01DX006 (iv), vehicle: saline
  T/C: 64 % of control
dose: 12.5 mg/kg/injection, schedule: Q01DX011 (oral), vehicle: saline
  T/C: 61 % of control
dose: 25.0 mg/kg/injection, schedule: Q01DX011 (oral), vehicle: saline
  T/C: 45 % of control
dose: 32.0 mg/kg/injection, schedule: Q01DX006 (iv), vehicle: saline
  T/C: 94 % of control
dose: 50.0 mg/kg/injection, schedule: Q01DX011 (oral), vehicle: saline
  T/C: 9 % of control
dose: 64.0 mg/kg/injection, schedule: Q01DX006 (iv), vehicle: saline
  T/C: 53 % of control

## NNc1ncnc2nc[nH]c12
dose: 30.0 mg/kg/injection, schedule: Q01DX011 (ip), vehicle: saline
  T/C: 67 % of control
dose: 60.0 mg/kg/injection, schedule: Q01DX011 (ip), vehicle: saline
  T/C: 34 % of control

## CCCCCCCCCNc1ncnc2[nH]ncc12
[5]
  T/C: 51 % of control
[6]
  T/C: 64 % of control

## O=c1[nH][nH]c(=O)[nH]1
[11]
  T/C: 85 % of control
dose: 225.0 mg/kg/injection, schedule: Q01DX011 (ip), vehicle: saline
  T/C: 94 % of control
